Source: the NIST ThermoML archive (doi:10.1016/j.fluid.2007.07.066)

Experiment: refractive index (Na D-line) (dimensionless); mn = molality of the nth substance listed, in mol/kg
Conditions: 298.15 K, 101 kPa, Liquid, Standard Abbe refractometry

O=P([O-])([O-])O.[Na+].[Na+] [disodium hydrogen phosphate] + O
Conditions	refractive index
m1 = 0.0049	1.3328
m1 = 0.0104	1.3329
m1 = 0.0154	1.3331
m1 = 0.0211	1.3333
m1 = 0.0413	1.334
m1 = 0.0712	1.3348
m1 = 0.1066	1.3357
m1 = 0.1437	1.3367
m1 = 0.1927	1.3379
m1 = 0.2475	1.3392
m1 = 0.3697	1.3421
m1 = 0.4438	1.3438
m1 = 0.5295	1.3458
m1 = 0.6125	1.3476
m1 = 0.6768	1.349
m1 = 0.7479	1.3505
m1 = 0.8346	1.3524
m1 = 0.9695	1.3551
